Experiment [1] concerns the target T1, GDP loaded biotinylated KRas^G12C protein (Homo sapiens, UniProt P01116, G12C).
T1 construct: biotin (biotinylated); made in house
As to the kind of experiment: KRasG12C mass spectrometry adducting assay. The experiment is classed as binding. The following applies: test compound final concentration 10 μM, 4 μM KRasG12C, react for 4 hours. The procedure: KRasG12C Mass Spectrometry Adducting Assay
Enzyme solutions were prepared in assay buffer containing 20 mM HEPES (pH 7.5), 5 mM MgCl2, and 150 mM NaCl. […] The plate was sealed before reading on a Xevo G2 QTOF (Waters) and Acquity LC system (Waters). […] Blank samples were run in between each test sample.
Data was analysed in Mass Lynx software (Waters), the Total ion count (TIC) trace was used and the eluted protein peak data combined. Using the combined spectrum the data was deconvoluted using MaxEnt1 method. The peak area for apo-protein KRas^G12C (APO) and KRAS+relative cmpd mass (adduct) were measured, and a percentage adduct was calculated using the following calculation:
Percent adduct=100*(area of adduct peak/(sum of APO+adduct peaks)

The target of experiment [2] is T1, GDP loaded biotinylated KRas^G12C protein. In words: KRasG12C functional assay. The experiment is classed as biochemical. The settings on record: HTRF FRET readout of SOS-mediated nucleotide exchange and GST-Raf RBD binding; samples incubated for 4 hrs; read-out: KRasG12C functional assay IC50 value. The procedure: KRasG12C Functional Assay
All enzyme and substrate solutions were prepared in assay buffer containing 20 mM HEPES (pH 7.5), 5 mM MgCl2, 150 mM NaCl, and 0.01% Tween 20. […] In a separate mix 20 nM GST-Raf Ras binding domain (GST-Raf RBD, purified in house) and 4 μg/ml anti-GST XL665 antibody (Cisbio) was prepared in assay buffer containing 50 mM Potassium Fluoride and 0.05 mg/ml BSA and equilibrated for 4 hours before adding 0.6 μM Guanosine 5′-[γ-thio]triphosphate (GTPγS, Sigma) and 0.08 μM SOS (purified in house). 5 μl of the GST-RAF RBD mix was then dispensed into each well of the assay plate. […] This is detected simultaneously via the specific binding interaction between active GTPγS KRas^G12C with GST-Raf RBD which brings the europium and XL665 into close proximity enabling an increased FRET signal to be detected on a Pherastar (BMG) plate reader equipped with the HTRF filter module. […] IC50 values were calculated from normalised dose-response response FRET data curve fitted in Genedata screener (Basel, Switzerland).

Each structure is given as a SMILES string.

T1 sequence (P01116 1-188 isoform P01116-2 G12C): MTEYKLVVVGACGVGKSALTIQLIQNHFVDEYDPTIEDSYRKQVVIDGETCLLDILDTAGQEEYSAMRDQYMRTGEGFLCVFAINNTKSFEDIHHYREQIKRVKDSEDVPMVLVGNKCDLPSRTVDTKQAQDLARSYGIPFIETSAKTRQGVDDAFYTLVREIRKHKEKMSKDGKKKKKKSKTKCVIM

Take `C=CC(=O)N1CCN2c3ncnc4cc(-c5ccccc5CC(N)=O)c(Cl)c(c34)OC[C@@H]2C1` [Example 49, 2-{2-[(8aS)-10-Acryloyl-6-chloro-8,8a,9,10,11,12-hexahydropyrazino[2′,1′:3,4][1,4]oxazepino[5,6,7-de]quinazolin-5-yl]phenyl}acetamide]: the “KRasG12C M.S. Binding Mean adduct %” value in experiment [1] is on record as 28%. Besides, the IC50 in experiment [2] was 7530 nM. On to `C=CC(=O)N1CCN2c3nc(N4CCOCC4)nc4cc(-c5c(C)ccc6[nH]ncc56)c(Cl)c(c34)OC[C@@H]2C1` [Example 70, 1-[(8aS)-6-chloro-5-(5-methyl-1H-indazol-4-yl)-2-(morpholin-4-yl)-8a,9,11,12-tetrahydropyrazino[2′,1′:3,4][1,4]oxazepino[5,6,7-de]quinazolin-10 (8H)-yl]prop-2-en-1-one], for which the “KRasG12C M.S. Binding Mean adduct %” value in experiment [1] turned out to be 67%. The IC50 in experiment [2] worked out at 445 nM.

On to `C=CC(=O)N1CCN2c3ncnc4cc(-c5c(C)cnc6[nH]ncc56)c(Cl)c(c34)OC[C@@H]2C1` [Example 14, 1-[(8aS)-6-Chloro-5-(5-methyl-1H-pyrazolo[3,4-b]pyridin-4-yl)-8a,9,11,12-tetrahydro-pyrazino[2′,1′:3,4][1,4]oxazepino[5,6,7-de]quinazolin-10 (8H)-yl]prop-2-en-1-one], for which the “KRasG12C M.S. Binding Mean adduct %” value in experiment [1] is listed as 53%. For the same molecule, in experiment [2], the IC50 was 2540 nM. For the molecule `C=CC(=O)N1CCN2c3nc(N4CC(N(C)C)C4)nc4cc(-c5c(C)ccc6[nH]ncc56)c(Cl)c(c34)OC[C@@H]2C1` (single isomer, unassigned) [Example 77], the “KRasG12C M.S. Binding Mean adduct %” value in experiment [1] turned out to be 100%. For the same molecule, in experiment [2], the IC50 stood at 21 nM. With `C=CC(=O)N1CCN2c3nc(NC4CCN(C5CC5)CC4)nc4cc(-c5c(C)ccc6[nH]ncc56)c(Cl)c(c34)OC[C@@H]2C1` (single isomer, unassigned) [Example 73], the “KRasG12C M.S. Binding Mean adduct %” value in experiment [1] came out at 8%. In addition, the IC50 in experiment [2] was determined as 1900 nM.

Regarding `C=CC(=O)N1CCN2c3ncnc4cc(-c5ccccc5S(C)(=O)=O)c(Cl)c(c34)OC[C@@H]2C1` [Example 29, 1-[(8aS)-6-Chloro-5-[2-(methylsulfonyl)phenyl]-8a,9,11,12-tetrahydropyrazino[2′,1′:3,4][1,4]oxazepino[5,6,7-de]quinazolin-10(8H)-yl]prop-2-en-1-one], in experiment [1], the “KRasG12C M.S. Binding Mean adduct %” value is reported as 45%. In experiment [2], the IC50 is 5020 nM. Take `C=CC(=O)N1CCN2c3ncnc4cc(-c5ccccc5Cl)c(Cl)c(c34)OC[C@@H]2C1` [Example 42, 1-[(8aS)-6-Chloro-5-(2-chlorophenyl)-8a,9,11,12-tetrahydropyrazino[2′,1′:3,4][1,4]oxazepino[5,6,7-de]quinazolin-10(8H)-yl]prop-2-en-1-one]: in experiment [1], the “KRasG12C M.S. Binding Mean adduct %” value stood at 100%. For the same molecule, the IC50 in experiment [2] amounted to 247 nM. For `C=CC(=O)N1CCN2c3ncnc4cc(-c5cccc6c(C)n(C)nc56)c(Cl)c(c34)OC[C@@H]2C1` [Example 37, 1-[(8aS)-6-Chloro-5-(2,3-dimethyl-2H-indazol-7-yl)-8a,9,11,12-tetrahydropyrazino[2′,1′:3,4][1,4]oxazepino[5,6,7-de]quinazolin-10(8H)-yl]prop-2-en-1-one], in experiment [1], the “KRasG12C M.S. Binding Mean adduct %” value is 49%. In experiment [2], the IC50 amounted to 2730 nM. As for `C=CC(=O)N1CCN2c3ncnc4cc(-c5c(C)ccc6[nH]ncc56)cc(c34)OC[C@@H]2C1` [Example 5, 1-[(8aS)-5-(5-Methyl-1H-indazol-4-yl)-8a,9,11,12-tetrahydropyrazino[2′,1′:3,4][1,4]-oxazepino[5,6,7-de]quinazolin-10 (8H)-yl]prop-2-en-1-one], the “KRasG12C M.S. Binding Mean adduct %” value in experiment [1] came out at 91%. For the same molecule, the IC50 in experiment [2] amounted to 798 nM. For the molecule `C=CC(=O)N1CCN2c3ncnc4cc(-c5ccccc5F)c(Cl)c(c34)OC[C@@H]2C1` [Example 60, 1-[(8aS)-6-Chloro-5-(2-fluorophenyl)-8a,9,11,12-tetrahydropyrazino[2′,1′:3,4][1,4]oxazepino[5,6,7-de]quinazolin-10(8H)-yl]prop-2-en-1-one], the “KRasG12C M.S. Binding Mean adduct %” value in experiment [1] worked out at 100%. Further, in experiment [2], the IC50 was 437 nM. On to `C=CC(=O)N1CCN2c3ncnc4cc(-c5cccc(N=S(C)(C)=O)c5)c(Cl)c(c34)OC[C@@H]2C1` [Example 36, 1-[(8aS)-6-Chloro-5-(3-{[dimethyl(oxido)-lambda~6~- sulfanylidene]amino}phenyl)-8a,9,11,12-tetrahydropyrazino[2′,1′:3,4][1,4]oxazepino[5,6,7-de]quinazolin-10(8H)-yl]prop-2-en-1-one], for which, in experiment [1], the “KRasG12C M.S. Binding Mean adduct %” value is 21%. Moreover, in experiment [2], the IC50 stood at 6380 nM. Turning to `C=CC(=O)N1CCN2c3nc(NCCN(C)C)nc4cc(-c5c(C)ccc6[nH]ncc56)c(Cl)c(c34)OC[C@@H]2C1` (single isomer, unassigned) [Example 79], the “KRasG12C M.S. Binding Mean adduct %” value in experiment [1] amounted to 0%. The IC50 in experiment [2] amounted to 1720 nM. Consider `C=CC(=O)N1CCN2c3ncnc4cc(-c5cccc6[nH]c(=O)[nH]c56)c(Cl)c(c34)OC[C@@H]2C1` [Example 13, 4-[(8aS)-10-Acryloyl-6-chloro-8,8a,9,10,11,12-hexahydropyrazino[2′,1′:3,4][1,4]-oxazepino[5,6,7-de]quinazolin-5-yl]-1,3-dihydro-2H-benzimidazol-2-one], for which, in experiment [1], the “KRasG12C M.S. Binding Mean adduct %” value was determined as 64%. In experiment [2], the IC50 is 2000 nM.

In the case of `C=CC(=O)N1CCN2c3ncnc4cc(-c5cccc6c5oc(=O)n6C)c(Cl)c(c34)OC[C@@H]2C1` [Example 22, 7-[(8aS)-10-Acryloyl-6-chloro-8,8a,9,10,11,12-hexahydropyrazino[2′,1′:3,4][1,4]oxazepino[5,6,7-de]quinazolin-5-yl]-3-methyl-1,3-benzoxazol-2(3H)-one], the “KRasG12C M.S. Binding Mean adduct %” value in experiment [1] came out at 34%. Further, the IC50 in experiment [2] is 1770 nM. For `C=CC(=O)N1CCN2c3nc(N4CCOCC4)nc4cc(-c5c(C)ccc6[nH]ncc56)c(Cl)c(c34)OC[C@@H]2C1` (single isomer, unassigned) [Example 72], in experiment [1], the “KRasG12C M.S. Binding Mean adduct %” value stood at 5%. In experiment [2], the 50% inhibitory concentration (IC50) is 39400 nM. Consider `C=CC(=O)N1CCN2c3ncnc4cc(-c5cc(Cl)ccc5OC)c(Cl)c(c34)OC[C@@H]2C1` [Example 48, 1-[(8aS)-6-Chloro-5-(5-chloro-2-methoxyphenyl)-8a,9,11,12-tetrahydropyrazino[2′,1′:3,4][1,4]oxazepino[5,6,7-de]quinazolin-10(8H)-yl]prop-2-en-1-one], for which the “KRasG12C M.S. Binding Mean adduct %” value in experiment [1] came to 68%. Moreover, the IC50 in experiment [2] is 6310 nM.

Consider `C=CC(=O)N1CCN2c3ncnc4cc(-c5ccccc5C#N)c(Cl)c(c34)OC[C@@H]2C1` [Example 68, 2-[(8aS)-10-Acryloyl-6-chloro-8,8a,9,10,11,12-hexahydropyrazino[2′,1′:3,4][1,4]oxazepino[5,6,7-de]quinazolin-5-yl]benzonitrile], for which, in experiment [1], the “KRasG12C M.S. Binding Mean adduct %” value is recorded as 62%. For the same molecule, the IC50 in experiment [2] was 1470 nM. Taken in the same sequence, the figures for `C=CC(=O)N1CCN2c3nc(NCCN(C)C)nc4cc(-c5c(C)ccc6[nH]ncc56)c(Cl)c(c34)OC[C@@H]2C1` (single isomer, unassigned) [Example 80] were 90% and 18 nM. Consider `C=CC(=O)N1CCN2c3ncnc4c(Cl)c(-c5c(C)ccc6[nH]ncc56)cc(c34)OC[C@@H]2C1` [Example 8, 1-[(8aS)-4-Chloro-5-(5-methyl-1H-indazol-4-yl)-8a,9,11,12-tetrahydropyrazino-[2′,1′:3,4][1,4]oxazepino[5,6,7-de]quinazolin-10 (8H)-yl]prop-2-en-1-one], for which the “KRasG12C M.S. Binding Mean adduct %” value in experiment [1] stood at 81%. Moreover, in experiment [2], the half-maximal inhibitory concentration (IC50) was found to be 324 nM.

As to `Cc1ccc2[nH]ncc2c1-c1cc2ncnc3c2c(c1Cl)OC[C@@H]1CN(C(=O)/C=C/CN(C)C)CCN31` [Example 4, (E)-1-((8aS)-6-Chloro-5-(5-methyl-1H-indazol-4-yl)-8a,9,11,12-tetrahydropyrazino[2′,1′:3,4][1,4]oxazepino[5,6,7-de]quinazolin-10 (8H)-yl)-4-(dimethylamino)but-2-en-1-one], the “KRasG12C M.S. Binding Mean adduct %” value in experiment [1] was found to be 74%. In experiment [2], the IC50 worked out at 518 nM. Taken in the same sequence, the figures for `C=CC(=O)N1CCN2c3ncnc4cc(-c5cnccc5C#N)c(Cl)c(c34)OC[C@@H]2C1` [Example 67, 3-[(8aS)-10-Acryloyl-6-chloro-8,8a,9,10,11,12-hexahydropyrazino[2′,1′:3,4][1,4]oxazepino[5,6,7-de]quinazolin-5-yl]pyridine-4-carbonitrile] were 17% and 6530 nM.

For `C=CC(=O)N1CCN2c3ncnc4c(F)c(-c5c(O)cccc5F)c(Cl)c(c34)OC[C@@H]2C1` [Example 69, 1-((8aS)-6-chloro-4-fluoro-5-(2-fluoro-6-hydroxyphenyl)-8a,9,11,12-tetrahydro-pyrazino[2′,1′:3,4][1,4]oxazepino[5,6,7-de]quinazolin-10 (8H)-yl)prop-2-en-1-one], in experiment [2], the IC50 amounted to 29 nM.

A word on the IC50: it is the midpoint of a concentration-inhibition curve.

For the origin of these results see patent US20220127281A1, “HETEROARYL COMPOUNDS THAT INHIBIT G12C MUTANT RAS PROTEINS” (AstraZeneca AB, priority 2017, published 2022).
